Tests used:
HDAC 6 = target: T1, HDAC 6 (Homo sapiens, UniProt Q9UBN7); test: Test of HDAC activities, HDAC6 (fluorimetric); assay type: biochemical; parameters: purchased Calbiochem 382180; details: samples at 0.1, 1, 10, 100, 1000 nM; 37° C. 60 minutes; fluorescence Ex 390, Em 460; read-out: HDAC inhibitory activities, HDAC6
T1 sequence (Q9UBN7 1-1215): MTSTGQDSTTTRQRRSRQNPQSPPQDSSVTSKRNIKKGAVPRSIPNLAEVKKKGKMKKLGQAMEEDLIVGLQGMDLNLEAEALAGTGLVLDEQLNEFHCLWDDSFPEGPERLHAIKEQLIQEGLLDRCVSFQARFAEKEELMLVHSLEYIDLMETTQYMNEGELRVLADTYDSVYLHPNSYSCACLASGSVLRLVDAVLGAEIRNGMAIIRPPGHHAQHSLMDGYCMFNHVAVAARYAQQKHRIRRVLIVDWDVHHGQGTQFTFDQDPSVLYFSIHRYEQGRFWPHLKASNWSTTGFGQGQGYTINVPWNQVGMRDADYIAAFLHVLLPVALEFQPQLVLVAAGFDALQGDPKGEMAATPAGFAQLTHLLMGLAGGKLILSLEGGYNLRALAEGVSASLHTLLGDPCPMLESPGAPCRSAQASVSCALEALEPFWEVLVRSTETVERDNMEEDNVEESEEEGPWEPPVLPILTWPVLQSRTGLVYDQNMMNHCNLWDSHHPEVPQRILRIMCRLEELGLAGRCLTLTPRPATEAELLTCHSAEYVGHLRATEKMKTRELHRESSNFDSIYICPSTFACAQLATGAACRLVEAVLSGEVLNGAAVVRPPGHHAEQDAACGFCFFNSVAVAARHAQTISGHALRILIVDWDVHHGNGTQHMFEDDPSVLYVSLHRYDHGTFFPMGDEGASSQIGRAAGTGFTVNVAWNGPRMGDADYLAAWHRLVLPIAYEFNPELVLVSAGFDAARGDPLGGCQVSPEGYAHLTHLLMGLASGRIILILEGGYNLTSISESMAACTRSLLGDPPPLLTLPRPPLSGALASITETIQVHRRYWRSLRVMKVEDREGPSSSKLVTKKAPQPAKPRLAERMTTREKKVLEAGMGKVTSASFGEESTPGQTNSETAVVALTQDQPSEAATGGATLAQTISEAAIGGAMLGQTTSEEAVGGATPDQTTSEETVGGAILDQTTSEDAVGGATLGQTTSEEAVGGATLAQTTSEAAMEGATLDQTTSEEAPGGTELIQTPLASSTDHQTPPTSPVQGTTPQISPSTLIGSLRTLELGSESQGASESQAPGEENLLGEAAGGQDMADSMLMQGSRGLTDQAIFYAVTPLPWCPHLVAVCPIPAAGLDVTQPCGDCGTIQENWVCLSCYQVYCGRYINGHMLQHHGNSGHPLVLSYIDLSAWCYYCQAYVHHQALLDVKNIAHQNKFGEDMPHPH
Protocol: (§1) The HDAC inhibitory activities of test materials were measured using the HDAC1 Fluorimetric Drug Discovery Assay Kit (Enzolifesciences: BML-AK511) and HDAC6 human recombinant (Calbiochem: 382180). In the HDAC1 assay, the samples were treated with concentrations of 100, 1000, and 10000 nM, and in the HDAC6 assay, the samples were treated with concentrations of 0.1, 1, 10, 100, and 1000 nM. After the treatment of the samples, the samples were reacted at 37° C. for 60 minutes, treated with a developer, and then reacted at 37° C. for 30 minutes. Then, the fluorescence intensity (Ex 390, Em 460) was measured using the FlexStation 3 (Molecular device).

HDAC1 = HDAC1 (Homo sapiens, UniProt Q13547); test: Test of HDAC activities, HDAC1 Fluorimetric Drug Discovery Assay Kit; assay type: biochemical; parameters: purchased Enzolifesciences BML-AK511; details: samples at 100, 1000, 10000 nM; 37° C. 60 minutes; fluorescence Ex 390, Em 460; read-out: HDAC inhibitory activities, HDAC1
Protocol: as §1

Chain of HDAC1 (Q13547 whole entry): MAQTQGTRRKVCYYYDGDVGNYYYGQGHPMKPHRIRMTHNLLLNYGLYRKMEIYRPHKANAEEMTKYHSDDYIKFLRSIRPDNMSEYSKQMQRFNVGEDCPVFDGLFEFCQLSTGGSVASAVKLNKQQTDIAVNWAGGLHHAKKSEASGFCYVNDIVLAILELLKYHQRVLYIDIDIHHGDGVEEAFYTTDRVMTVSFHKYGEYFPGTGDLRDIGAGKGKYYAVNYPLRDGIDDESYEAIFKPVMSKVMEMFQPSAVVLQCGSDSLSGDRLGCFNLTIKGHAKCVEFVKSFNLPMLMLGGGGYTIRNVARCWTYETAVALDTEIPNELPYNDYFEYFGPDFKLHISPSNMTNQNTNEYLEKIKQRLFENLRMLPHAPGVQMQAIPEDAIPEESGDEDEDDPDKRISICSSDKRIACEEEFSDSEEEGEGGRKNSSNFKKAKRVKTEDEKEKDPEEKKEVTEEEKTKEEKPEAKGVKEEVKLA

Structure (SMILES)	IC50 (HDAC 6) [nM]	IC50 (HDAC1) [nM]
Cn1ncc2cc(-c3cccc(N(Cc4ccc(C(=O)NO)cc4)C(=O)N4CCOCC4)c3)ccc21 [Compound 252, N-(4-(hydroxycarbamoyl)benzyl)-N-(3-(1-methyl-1H-indazol-5-yl)phenyl)morpholine-4-carboxamide]	6	151
CN1CCN(C(=O)N(Cc2ccc(C(=O)NO)cc2)c2cccc(Br)c2)CC1 [Compound 256, N-(3-bromophenyl)-N-(4-(hydroxycarbamoyl)benzyl)-4-methylpiperazine-1-carboxamide]	1	148
Cn1ncc2cc(-c3cccc(N(Cc4ccc(C(=O)NO)cc4)C(=O)N4CCCCC4)c3)ccc21 [Compound 260, N-(4-(hydroxycarbamoyl)benzyl)-N-(3-(1-methyl-1H-indazol-5-yl)phenyl)piperidine-1-carboxamide]	7	551
O=C(NO)c1ccc(CN(C(=O)N2CCOCC2)c2cccc(-c3ccc4cc[nH]c4c3)c2)cc1 [Compound 261, N-(3-(1H-indol-6-yl)phenyl)-N-(4-(hydroxycarbamoyl)benzyl)morpholine-4-carboxamide]	2	72
O=C(NO)c1ccc(CN(C(=O)N2CCOCC2)c2cccc(-c3cccnc3)c2)cc1 [Compound 262, N-(4-(hydroxycarbamoyl)benzyl)-N-(3-(pyridin-3-yl)phenyl)morpholine-4-carboxamide]	1	164
O=C(NO)c1ccc(CN(C(=O)N2CCOCC2)c2cccc(-c3ccc4[nH]ccc4c3)c2)cc1 [Compound 263, N-(3-(1H-indol-5-yl)phenyl)-N-(4-(hydroxycarbamoyl)benzyl)morpholine-4-carboxamide]	2	75
O=C(NO)c1ccc(CN(C(=O)N2CCOCC2)c2ccccc2)cc1 [Compound 279, N-(4-(hydroxycarbamoyl)benzyl)-N-phenylmorpholine-4-carboxamide]	1	292
O=C(NO)c1ccc(CN(C(=O)N2CCOCC2)c2ccccn2)cc1 [Compound 280, N-(4-(hydroxycarbamoyl)benzyl)-N-(pyridin-2-yl)morpholine-4-carboxamide]	5	1260
O=C(NO)c1ccc(CN(C(=O)N2CCOCC2)c2cccnc2)cc1 [Compound 281, N-(4-(hydroxycarbamoyl)benzyl)-N-(pyridin-3-yl)morpholine-4-carboxamide]	27	3910
O=C(NO)c1ccc(CN(C(=O)N2CCN(Cc3ccccc3)CC2)c2ncccn2)cc1 [Compound 309, 4-benzyl-N-(4-(hydroxycarbamoyl)benzyl)-N-(pyrimidin-2-yl)piperazine-1-carboxamide]	3	–
O=C(NO)c1ccc(CN(C(=O)N2CCC(O)(c3ccccc3)CC2)c2ncccn2)cc1 [Compound 311, 4-hydroxy-N-(4-(hydroxycarbamoyl)benzyl)-4-phenyl-N-(pyrimidin-2-yl)piperidine-1-carboxamide]	13	22900
O=C(NO)c1ccc(CN(C(=O)N2CCOCC2)c2ncccn2)cc1 [Compound 312, N-(4-(hydroxycarbamoyl)benzyl)-N-(pyrimidin-2-yl)morpholine-4-carboxamide]	7	22700
CC1CN(C(=O)N(Cc2ccc(C(=O)NO)cc2)c2ncccn2)CC(C)O1 (stereo not shown) [Compound 313, N-(4-(hydroxycarbamoyl)benzyl)-2,6-dimethyl-N-(pyrimidin-2-yl)morpholine-4-carboxamide]	7	35900
O=C(NO)c1ccc(CN(C(=O)N2CC=C(c3ccccc3)CC2)c2ccccn2)cc1 [Compound 352, N-(4-(hydroxycarbamoyl)benzyl)-4-phenyl-N-(pyridin-2-yl)-5,6-dihydropyridine-1(2H)-carboxamide]	7	4620
CN1CCN(C(=O)N(Cc2ccc(C(=O)NO)cc2)c2ccccn2)CC1 [Compound 353, N-(4-(hydroxycarbamoyl)benzyl)-4-methyl-N-(pyridin-2-yl)piperazine-1-carboxamide]	10	4530
CCN1CCN(C(=O)N(Cc2ccc(C(=O)NO)cc2)c2ccccn2)CC1 [Compound 354, 4-ethyl-N-(4-(hydroxycarbamoyl)benzyl)-N-(pyridin-2-yl)piperazine-1-carboxamide]	9	3910
O=C(NO)c1ccc(CN(C(=O)N2CCN(Cc3ccccc3)CC2)c2ccccn2)cc1 [Compound 355, 4-benzyl-N-(4-(hydroxycarbamoyl)benzyl)-N-(pyridin-2-yl)piperazine-1-carboxamide]	5	2340
COc1ccccc1N1CCN(C(=O)N(Cc2ccc(C(=O)NO)cc2)c2ccccn2)CC1 [Compound 356, N-(4-(hydroxycarbamoyl)benzyl)-4-(2-methoxyphenyl)-N-(pyridin-2-yl)piperazine-1-carboxamide]	4	3820
O=C(NO)c1ccc(CN(C(=O)N2CCN(c3ccc(F)cc3)CC2)c2ccccn2)cc1 [Compound 357, 4-(4-fluorophenyl)-N-(4-(hydroxycarbamoyl)benzyl)-N-(pyridin-2-yl)piperazine-1-carboxamide]	3	3280
O=C(NO)c1ccc(CN(C(=O)N2CCCC2)c2ccccn2)cc1 [Compound 358, N-(4-(hydroxycarbamoyl)benzyl)-N-(pyridin-2-yl)pyrrolidine-1-carboxamide]	9	4170
O=C(NO)c1ccc(CN(C(=O)N2CCOCC2)c2nc(-c3ccccc3)cs2)cc1 [Compound 370, N-(4-(hydroxycarbamoyl)benzyl)-N-(4-phenylthiazol-2-yl)morpholine-4-carboxamide]	1	710
O=C(NO)c1ccc(CN(C(=O)N2CCOCC2)c2nc(-c3ccc(Cl)cc3)cs2)cc1 [Compound 371, N-(4-(4-chlorophenyl)thiazol-2-yl)-N-(4-(hydroxycarbamoyl)benzyl)morpholine-4-carboxamide]	20	1330
O=C(NO)c1ccc(CN(C(=O)N2CCOCC2)c2ccc(Br)cc2)cc1 [Compound 372, N-(4-bromophenyl)-N-(4-(hydroxycarbamoyl)benzyl)morpholine-4-carboxamide]	1	212
CN1CCCN(C(=O)N(Cc2ccc(C(=O)NO)cc2)c2ccccn2)CC1 [Compound 376, N-(4-(hydroxycarbamoyl)benzyl)-4-methyl-N-(pyridin-2-yl)-1,4-diazepane-1-carboxamide]	4	–
O=C(NO)c1ccc(CN(C(=O)N2CCC2)c2ccccn2)cc1 [Compound 377, N-(4-(hydroxycarbamoyl)benzyl)-N-(pyridin-2-yl)azetidine-1-carboxamide]	5	–
Cc1ccc(N2CCN(C(=O)N(Cc3ccc(C(=O)NO)cc3)c3ccccn3)CC2)cc1C [Compound 379, 4-(3,4-dimethylphenyl)-N-(4-(hydroxycarbamoyl)benzyl)-N-(pyridin-2-yl)piperazine-1-carboxamide]	4	–
O=C(NO)c1ccc(CN(C(=O)N2CCOCC2)c2ccc(C(F)(F)F)cc2)cc1 [Compound 385, N-(4-(hydroxycarbamoyl)benzyl)-N-(4-(trifluoromethyl)phenyl)morpholine-4-carboxamide]	5	976
CC1CN(C(=O)N(Cc2ccc(C(=O)NO)cc2)c2cccc(C(F)(F)F)c2)CC(C)O1 (stereo not shown) [Compound 386, N-(4-(hydroxycarbamoyl)benzyl)-2,6-dimethyl-N-(3-(trifluoromethyl)phenyl)morpholine-4-carboxamide]	6	4040

Reference: US9878986B2, “Compounds for selective histone deacetylase inhibitors, and pharmaceutical composition comprising the same” (CHONG KUN DANG PHARMACEUTICAL CORP., priority 2013, dated 2018)
